Data taken from patent US10039741B2, “Use of delta tocopherol for the treatment of lysosomal storage disorders” (The United States of America, as represented by the …, priority 2010, dated 2018).
Entries after “also recorded” stand apart in the source; their conditions may differ.

How the values were obtained:
[1] = test system: Wolman disease fibroblasts; experiment: Lysotracker staining assay; type: cell-based, human
neuron-like NPCD cells = experiment: Lysosome size; type: cell-based, human; details: neuron-like cells differentiated from NPCD patient MSC
Procedure: (§1) The adipose mesenchymal stem cells (HMSC.AD-100, HMSC-NPC22 and HMSC-NPC23) were isolated from two NPC patients as well as one heath individual and provided by Celleng-tech (Coralville, Iowa). These cells were maintained in MSC expansion media (Celleng-tech, cat# HMSC.E.Media-450) supplemented with 10% FBS 100 unit/ml penicillin and 100 μg/ml streptomycin at 5% CO2, 37° C. For neural differentiation, cells were initially plated at 30% confluency (˜2500 cells/cm^2) using MSC expansion media. After 24 hours, MSC expansion media were withdrew. Cells were washed twice with Dulbecco's phosphate Buffer saline (Invitrogen) and incubated with neural differentiation media (Celleng-tech, cat# NEU.D.Media-450) supplemented with 10% FBS, 100 unit/ml penicillin and 100 μg/ml streptomycin at 5% CO2, 37° C. for additional 3 days.

NPCD MSC cells [2] = experiment: Lysosome size; type: cell-based, human
Procedure: as §1

[3] = test system: Niemann Pick type A disease fibroblasts; experiment: Lysotracker staining assay; type: cell-based, human
[4] = test system: baby hamster kidney cells; experiment: Cholesterol efflux; type: cell-based
[5] = test system: NPC patient-derived skin fibroblasts; experiment: Amplex red cholesterol assay (free cholesterol); type: cell-based, human
From the text: Free cholesterol accumulation in cells is a hallmark of NPC disease. The Amplex red cholesterol assay was used to screen an approved drug library in the NPC patient-derived skin fibroblasts that have free cholesterol accumulation in late endosome and lysosome. […] We then show δ-tocopherol in the filipin cholesterol staining assay, a method used clinically for NPCD diagnosis. […] Lysosome size is usually enlarged in the NPCD cells using a lysotracker staining assay.
The free cholesterol level in these cells was then measured by a cholesterol oxidase coupled HRP/amplex red detection method with a commercial available kit (Invitrogen). The cells were seeded to black, tissue culture-treated 1536-well plates (Greiner Bio-One, Monroe, N.C.) at 800 cells/well in 5 μl medium by a Multidrop Combi dispenser (Thermo Scientific, Waltham, Mass.) and cultured for 24 hours. The assay plates were added with 23 nl/well of compound DMSO solution using a pintool station (Kalypsys, San Diego, Calif.) and cultured for 3 days. The 1536-well assay plate was washed by a plate-inverted centrifugation method that removing medium by centrifuging plates upside down against a stack of paper towel at 1000 rpm for 1 min followed by addition of 7 μl/well PBS buffer, repeating for two times. The PBS buffer was added with a 45 degree angled dispenser (Kalypsys) or a Multi-Drop Combi dispenser set at medium speed to reduce disturbance to the cells. After the cell wash, 2.5 μl/well of detection mixture from the kit was added followed by 1 hour incubation at 37° C. With the addition of the detection mixture, the cells were lysed by the detergent containing buffer and free cholesterols in cell lysate were oxidized by cholesterol oxidase to produce H2O2 which reacting with amplex red dye in the presence of horseradish peroxidase to yield red fluorescence signal. A ViewLux plate reader (PerkinElmer, Boston, Mass.) was used to measure the fluorescent signal in assay plates with the excitation of 573 nm and emissions of 610 nm.

[6] = human plasma, physiological level; cited from earlier work
[7] = test system: Farber disease fibroblasts; experiment: Lysotracker staining assay; type: cell-based, human
NPCD MSC cells [8] = experiment: Free cholesterol accumulation; type: cell-based, human
Procedure: as §1
MSC cells were seeded on coverslips on day 0 in MSC expansion medium. On day 1, cells were washed twice with warm PBS buffer and then incubated with MSC neuronal differentiation medium. On day 4, media were replaced with fresh neuronal differentiation medium. On day 6, cells were fixed with 3.2% paraformaldehyde in HBSS for 15 min. Immunocytochemistry for neuronal beta III tubulin and unesterified cholesterol (filipin staining) was performed as described. The coverslips were examined y a XXX microscope. […]

WT fibroblasts = experiment: Microarray gene expression; type: cell-based, human; set-up: ACACA expression, Toco treat WT / HMGCR expression, Toco treat WT / SREBF2 expression, Toco treat WT / LDLR expression, Toco treat WT: unit not given here; details: 40 μM delta-tocopherol 5 days vs DMSO-treated
Procedure: Five NPC fibroblast cell lines as well as five normal fibroblast cell lines were treated with 40 μM delta-tocopherol for 5 days with a medium change and sully of fresh compound on 3rd day. The total RNAs was prepared as the standard method described previously ( ). The microarray gene expression experiment was carried out in a core microarray facility at NHGRI with a set of AAAAA chips (Affymetrix). Partek Genomics Software Suite (Copyright, Partek Inc.) was used to perform analysis of microarray data. Affymetrix cell files were loaded into the software using the RMA algorithm, which involved background correction, quantile normalization, log-2 transformation, and median polish summarization. PCA and hierarchical clustering identified one sample as an outlier. This sample (sample number 12) was not considered for further analysis. ANOVA was performed to identify the differentially expressed genes for three comparisons: 1) NPC_DMSO vs WT_DMSO 2) NPC tocopherol-treated vs NPC_DMSO-treated and 3) WT_tocopherol-treated vs WT_DMSO-treated.

[9] = 9 additional fibroblast primary cells from different NPCD patients

Cc1cc(O)cc2c1O[C@](C)(CCC[C@H](C)CCC[C@H](C)CCCC(C)C)CC2 [δ-tocopherol]
size of enlarged lysosomes [1]: significantly reduced
lysosome size (neuron-like NPCD cells): decrease in lysosome size
lysosome size (NPCD MSC cells [2]): decrease in lysosome size
size of enlarged lysosomes [3]: significantly reduced
cholesterol efflux [4]: significantly increased
effect compared with α-tocopherol [5, 9]: more potent than that of α-tocopherol
effect on cholesterol reduction [5, 9]: confirmed
cholesterol amount (cholesterol reduction) ([5]; NPCD fibroblasts): significantly reduced
potency compared with the other vitamin E isoforms ([5]; free cholesterol amount, filipin staining, lysotracker staining, NPCD fibroblasts): most potent of the eight isoforms of vitamin E; also recorded: more significant and potent than any of the other vitamin E isoforms
effect compared with α-tocopherol ([5]; δ-tocopherol at 40 μM, NPC fibroblasts): more potent than α-tocopherol at 80 μM
plasma concentration [6]: ~100 nM
size of enlarged lysosomes [7]: significantly reduced
accumulated free cholesterol (NPCD MSC cells [8]): reduction of accumulated free cholesterol
ABCA1 expression, Toco treat WT (WT fibroblasts): −1.4
ACACA expression, Toco treat WT (WT fibroblasts): −1.5
DHCR7 expression, Toco treat WT (WT fibroblasts): −1.6
FADS2 expression, Toco treat WT (WT fibroblasts): −2.0
FRRS1 expression, Toco treat WT (WT fibroblasts): −1.1
HMGCR expression, Toco treat WT (WT fibroblasts): −1.5
HMGCS1 expression, Toco treat WT (WT fibroblasts): −1.6
INSIG1 expression, Toco treat WT (WT fibroblasts): −1.6
LDLR expression, Toco treat WT (WT fibroblasts): −2.0
MMP1 expression, Toco treat WT (WT fibroblasts): 5.0
MMP3 expression, Toco treat WT (WT fibroblasts): 2.0
NOX4 expression, Toco treat WT (WT fibroblasts): −1.7
SC4MOL expression, Toco treat WT (WT fibroblasts): −1.7
SCD expression, Toco treat WT (WT fibroblasts): −3.5
SREBF1 expression, Toco treat WT (WT fibroblasts): −1.2
SREBF2 expression, Toco treat WT (WT fibroblasts): −1.6
